Values of other authors in US10485754B2, “Method for the production of a sodium ion-free effervescent tablet, powder or granulate having a high X ion content, where X can be a variety of substances” (BIOFAR LABORATOIRES, priority 2014, dated 2019).

Q: Which “calcium carbonate that can be dissolved in one liter of water” value (water) does the source give for `O=C([O-])[O-].[Ca+2]` [calcium carbonate] here?
A: Its value is 0.014 grams in one liter of water.

Q: And the “calcium carbonate that can be dissolved in one liter of water with CO2” value (with CO2 soda in the water)?
A: The value was “up to 16.6 grams in one liter of water”.
